Data from patent US6444617B1, “Fused-heterocycle dicarboxylic acid diamide derivatives or salts thereof, herbicide and usage thereof” (Nihon Nohyaku Co., Ltd., priority 1998, dated 2002).

Assays:
Assay type in all cases: in vivo
[1] = tested on: barnyard grass (Echinochloa crus-galli Beauv.); assay: Test Example 1: herbicidal effect on paddy field weeds before emergence; conditions: Dosage 5 kg/ha
Method in brief: (§1)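 Soil in pots is brought to paddy state and seeded with barnyard grass and bulrush; before germination, the soil receives a predetermined dosage of test compound in solution. After twenty-one days, control rate relative to untreated pots is calculated and graded.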

[2] = tested on: bulrush (Scirpus juncoides Roxb.); assay: as above; conditions: Dosage 5 kg/ha
Method in brief: as §1

[3] = tested on: barnyard grass (Echinochloa crus-galli Beauv.); assay: Test Example 2: herbicidal effect on paddy field weeds after emergence; conditions: Dosage 5 kg/ha; one-leaved stage; 21 days after treatment
Method in brief: (§2)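 Weeds were sown in 1/10000 are pots of soil flooded to paddy conditions and grown to the one-leaf stage, then the soil was treated with a solution of compound at a predetermined dosage.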

[4] = tested on: bulrush (Scirpus juncoides Roxb.); assay: as above; conditions: Dosage 5 kg/ha; one-leaved stage; 21 days after treatment
Method in brief: as §2

[5] = tested on: monochoria (Monochoria vaginalis Presl); assay: as above; conditions: Dosage 5 kg/ha; one-leaved stage; 21 days after treatment
Method in brief: as §2

[6] = tested on: barnyard grass (Echinochloa crus-galli Beauv.), Ec; assay: Test Example 3: herbicidal effect on upland weeds before emergence; conditions: dosage 5 kg/ha
Method in brief: (§3)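 Pre-emergence spray of liquid prep, compound at set concentration; read at 14 d post-treatment; weed-kill rate calculated, effect graded.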

[7] = tested on: bird's eye speedwell (Veronica persica Poir.), Vp; assay: as above; conditions: dosage 5 kg/ha
Method in brief: as §3

[8] = tested on: cleavers (Galium aparine L.), Ga; assay: as above; conditions: dosage 5 kg/ha
Method in brief: as §3

[9] = tested on: cocklebur (Xanthium strumarium L.), Xs; assay: as above; conditions: dosage 5 kg/ha
Method in brief: as §3

[10] = tested on: forxtail grass (Alopecurus aequalis var. amurensis Ohwi), Am; assay: as above; conditions: foxtail grass, dosage 5 kg/ha
Method in brief: as §3

[11] = tested on: velvetleaf (Abutilon theophtasti L.), At; assay: as above; conditions: dosage 5 kg/ha
Method in brief: as §3

soybean plant (So) = assay: Test Example 3: phytotoxicity to upland crop plants, treatment before emergence; conditions: dosage 5 kg/ha
Method in brief: (§4)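 Compound formulated as a liquid agent at a prescribed concentration is sprayed before crop emergence. After fourteen days, damage to soybean and wheat is examined and rated by a judgment criterion.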

wheat (Wh) = assay: as above; conditions: dosage 5 kg/ha
Method in brief: as §4

[12] = tested on: barnyard grass (Echinochloa crus-galli Beauv.), Ec; assay: Test Example 4: herbicidal effect on upland weeds after emergence; conditions: dosage 5 kg/ha; sprayed after emergence; judged 14 days after treatment
Method in brief: (§5)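 Scores of weed-killing rate, with crop phytotoxicity, come from inspection 14 days after plants in soil vats, grown to specified leaf stages, are sprayed with a formulation holding the compound at a prescribed concentration.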

[13] = tested on: bird's eye speedwell (Veronica persica Poir.), Vp; assay: as above; conditions: dosage 5 kg/ha; sprayed after emergence; judged 14 days after treatment
Method in brief: as §5

[14] = tested on: cleavers (Galium aparine L.), Ga; assay: as above; conditions: dosage 5 kg/ha; sprayed after emergence; judged 14 days after treatment
Method in brief: as §5

[15] = tested on: cocklebur (Xanthium strumarium L.), Xs; assay: as above; conditions: dosage 5 kg/ha; sprayed after emergence; judged 14 days after treatment
Method in brief: as §5

[16] = tested on: forxtail grass (Alopecurus aequalis var. amurensis Ohwi), Am; assay: as above; conditions: dosage 5 kg/ha; sprayed after emergence; judged 14 days after treatment
Method in brief: as §5

[17] = tested on: velvetleaf (Abutilon theophtasti L.), At; assay: as above; conditions: dosage 5 kg/ha; sprayed after emergence; judged 14 days after treatment
Method in brief: as §5

soybean plant = assay: Test Example 4: phytotoxicity to upland crop plants, treatment after emergence; conditions: dosage 5 kg/ha, sprayed after emergence, judged 14 days after treatment
Method in brief: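 Post-emergence foliar spray at a prescribed concentration, applied once the sown weeds and soybean reached defined leaf stages in soil vats; herbicidal effect and soybean injury scored after 14 days.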

wheat = assay: as above; conditions: dosage 5 kg/ha, sprayed after emergence, judged 14 days after treatment
Method in brief: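 Weeds, soybean and wheat were sown in soil-filled vats, covered with soil and grown to set leaf stages before a post-emergence spray of an agent containing the compound at a prescribed concentration. Weed-killing rate and crop phytotoxicity were assessed 14 days after treatment.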

| SMILES | Pre-emergence treatment Barnyard grass (herbicidal effect) [1] | Pre-emergence treatment Bulrush (herbicidal effect) [2] | Post-emergence treatment Barnyard grass (herbicidal effect) [3] | Post-emergence treatment Bulrush (herbicidal effect) [4] | Post-emergence treatment Monochoria (herbicidal effect) [5] | Herbicidal effect Ec [6] | Herbicidal effect Vp [7] | Herbicidal effect Ga [8] | Herbicidal effect Xs [9] | Herbicidal effect Am [10] | Herbicidal effect At [11] | Phytotoxicity So (soybean plant (So)) | Phytotoxicity Wh (wheat (Wh)) | Herbicidal effect Ec [12] | Herbicidal effect Vp [13] | Herbicidal effect Ga [14] | Herbicidal effect Xs [15] | Herbicidal effect Am [16] | Herbicidal effect At [17] | Phytotoxicity So (soybean plant) | further results |
| --- | --- | --- | --- | --- | --- | --- | --- | --- | --- | --- | --- | --- | --- | --- | --- | --- | --- | --- | --- | --- | --- |
| CCCNC(=O)c1nc2c(cc1C(=O)Nc1c(CC)ccc(Cl)c1CC)CCO2 [compound 919] | 5 (Weed-killing rate is 100%.) | 5 (Weed-killing rate is 100%.) | 5 (Weed-killing rate is 100%.) | 5 (Weed-killing rate is 100%.) | 5 (Weed-killing rate is 100%.) | 5 (Weed-killing rate is 100%.) | 5 (Weed-killing rate is 100%.) | 5 (Weed-killing rate is 100%.) | 5 (Weed-killing rate is 100%.) | 5 (Weed-killing rate is 100%.) | 5 (Weed-killing rate is 100%.) | 5 (Crop-killing rate is 100%.) | 5 (Crop-killing rate is 100%.) | 5 (Weed-killing rate is 100%.) | 5 (Weed-killing rate is 100%.) | 5 (Weed-killing rate is 100%.) | 5 (Weed-killing rate is 100%.) | 5 (Weed-killing rate is 100%.) | 5 (Weed-killing rate is 100%.) | 5 (Crop-killing rate is 100%.) | Phytotoxicity Wh (wheat): 5 (Crop-killing rate is 100%.) |
| CCCNC(=O)c1nc2onc(C)c2cc1C(=O)Nc1c(CC)ccc(Cl)c1CC [compound 1064] | 5 (Weed-killing rate is 100%.) | 5 (Weed-killing rate is 100%.) | 5 (Weed-killing rate is 100%.) | 5 (Weed-killing rate is 100%.) | 5 (Weed-killing rate is 100%.) | 5 (Weed-killing rate is 100%.) | 5 (Weed-killing rate is 100%.) | 5 (Weed-killing rate is 100%.) | 5 (Weed-killing rate is 100%.) | 5 (Weed-killing rate is 100%.) | 5 (Weed-killing rate is 100%.) | 4 (Crop-killing rate is 90-99%.) | 5 (Crop-killing rate is 100%.) | 5 (Weed-killing rate is 100%.) | 5 (Weed-killing rate is 100%.) | 5 (Weed-killing rate is 100%.) | 5 (Weed-killing rate is 100%.) | 5 (Weed-killing rate is 100%.) | 5 (Weed-killing rate is 100%.) | 4 (Crop-killing rate is 90-99%.) | Phytotoxicity Wh (wheat): 5 (Crop-killing rate is 100%.) |
| Cc1c(Cl)cccc1NC(=O)c1cc2c(C)noc2nc1C(=O)NC1CCCC1 [compound 1085] | 5 (Weed-killing rate is 100%.) | 5 (Weed-killing rate is 100%.) | 5 (Weed-killing rate is 100%.) | 5 (Weed-killing rate is 100%.) | 5 (Weed-killing rate is 100%.) | 5 (Weed-killing rate is 100%.) | 5 (Weed-killing rate is 100%.) | 5 (Weed-killing rate is 100%.) | 5 (Weed-killing rate is 100%.) | 5 (Weed-killing rate is 100%.) | 5 (Weed-killing rate is 100%.) | 4 (Crop-killing rate is 90-99%.) | 5 (Crop-killing rate is 100%.) | 5 (Weed-killing rate is 100%.) | 5 (Weed-killing rate is 100%.) | 4 (Weed-killing rate is 90-99%.) | 5 (Weed-killing rate is 100%.) | 5 (Weed-killing rate is 100%.) | 5 (Weed-killing rate is 100%.) | 4 (Crop-killing rate is 90-99%.) | Phytotoxicity Wh (wheat): 5 (Crop-killing rate is 100%.) |
